Test results published in ChEMBL document CHEMBL4145688, “Potent and Orally Bioavailable Inverse Agonists of RORγt Resulting from Structure-Based Design” (J Med Chem, 2018).
pEC50, pIC50: −log10 of the molar value. Values after ≈ are worked out from the molar mass of the structure shown.

What was measured:
[1] = Half life in Han Wistar rat at 0.5 mg/kg, iv or 1 mg/kg, po; assay type: ADME, organism-based; settings: in vivo
[2] = Stability in pH 8 buffer solution at 37 degC measured over 2 days; assay type: physicochemical; settings: pH 8, 48 h
[3] = Efflux ratio of permeability in human Caco2 cells; assay type: ADME, cell-based; settings: Caco-2
[4] = target: T1, Nuclear receptor ROR-alpha (Homo sapiens, UniProt P35398); assay: Agonist activity at His6-tcs-human RORalpha LBD assessed as stimulation of biotinylated PGC1alpha (130 to 154 residues) peptide recruitment incubated for 1 hr by HTRF-FRET assay; settings: read-out: IC50 (the source's name)
T1 sequence (P35398 whole entry): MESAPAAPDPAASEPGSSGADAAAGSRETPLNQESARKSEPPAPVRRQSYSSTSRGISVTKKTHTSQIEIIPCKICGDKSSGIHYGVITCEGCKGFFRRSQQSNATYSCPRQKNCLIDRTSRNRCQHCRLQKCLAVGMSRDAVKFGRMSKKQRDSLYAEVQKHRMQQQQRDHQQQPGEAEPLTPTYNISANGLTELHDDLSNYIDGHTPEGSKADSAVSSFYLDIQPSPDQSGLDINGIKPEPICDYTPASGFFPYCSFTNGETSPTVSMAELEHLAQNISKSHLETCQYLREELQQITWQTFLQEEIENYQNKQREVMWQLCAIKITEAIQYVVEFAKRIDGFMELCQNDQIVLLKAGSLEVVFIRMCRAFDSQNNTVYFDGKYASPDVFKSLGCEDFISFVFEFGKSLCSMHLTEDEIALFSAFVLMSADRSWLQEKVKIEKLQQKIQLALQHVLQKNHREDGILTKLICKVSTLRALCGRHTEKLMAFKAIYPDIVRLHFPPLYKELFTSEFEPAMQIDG

[5] = target: T2, Nuclear receptor ROR-beta (Homo sapiens, UniProt Q92753); assay: Displacement of [3H]ATRA from 6H-AVI-GST-TEV-human RORbeta (T221 to K470 residues) pre-incubated for 30 mins before [3H]ATRA addition and measurted ater 18 to 23 hrs by scintillation proximity assay
T2 sequence (Q92753 whole entry): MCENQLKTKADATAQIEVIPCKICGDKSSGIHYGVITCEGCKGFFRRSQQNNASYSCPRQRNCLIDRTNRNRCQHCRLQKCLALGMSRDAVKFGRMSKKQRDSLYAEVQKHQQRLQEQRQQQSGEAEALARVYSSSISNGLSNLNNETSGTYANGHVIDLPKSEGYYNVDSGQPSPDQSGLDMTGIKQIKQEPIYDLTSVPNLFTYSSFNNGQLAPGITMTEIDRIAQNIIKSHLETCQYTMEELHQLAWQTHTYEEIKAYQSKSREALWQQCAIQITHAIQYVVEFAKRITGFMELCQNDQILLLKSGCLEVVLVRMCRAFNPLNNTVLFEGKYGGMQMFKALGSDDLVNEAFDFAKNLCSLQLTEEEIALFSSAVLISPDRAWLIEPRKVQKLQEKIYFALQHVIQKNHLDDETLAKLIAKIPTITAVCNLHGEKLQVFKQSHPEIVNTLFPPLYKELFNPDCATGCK

[6] = target: T3, Nuclear receptor ROR-gamma (Homo sapiens, UniProt P51449)
T3 sequence (P51449 whole entry): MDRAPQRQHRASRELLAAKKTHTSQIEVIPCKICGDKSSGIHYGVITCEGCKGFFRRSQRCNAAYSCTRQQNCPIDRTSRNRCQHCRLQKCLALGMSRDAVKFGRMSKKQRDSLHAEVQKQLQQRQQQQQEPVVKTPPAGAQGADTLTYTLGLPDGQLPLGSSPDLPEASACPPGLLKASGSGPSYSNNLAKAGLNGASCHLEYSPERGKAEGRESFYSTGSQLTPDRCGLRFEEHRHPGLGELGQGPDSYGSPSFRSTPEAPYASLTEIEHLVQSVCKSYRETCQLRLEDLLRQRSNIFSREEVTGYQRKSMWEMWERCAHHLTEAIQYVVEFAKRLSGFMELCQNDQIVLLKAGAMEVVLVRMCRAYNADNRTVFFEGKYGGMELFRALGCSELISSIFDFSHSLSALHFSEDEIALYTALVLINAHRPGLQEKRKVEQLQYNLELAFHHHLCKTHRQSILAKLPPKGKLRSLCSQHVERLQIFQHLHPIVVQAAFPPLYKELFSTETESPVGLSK
Description: Displacement of [3H]-2-(4-(ethylsulfonyl)phenyl)-N-(4-(2-(methoxymethyl)phenyl)thiophen-2-yl)acetamide from purified N-(HN)6-GST-TCS-human RORgammat (258 to 518 residues) incubated for 16 hrs by scintillation proximity assay

[7] = Oral absorption in Han Wistar rat at 1 mg/kg; assay type: ADME, organism-based; settings: in vivo, read-out: Fabs
[8] = physchem; settings: aqueous buffer, pH 7.4
Description: Solubility in aqueous buffer at pH 7.4

[9] = target: T3, Nuclear receptor ROR-gamma; remark: listed apart in the source
[10] = Stability in pH 7.4 buffer solution at 37 degC measured over 2 days; assay type: physicochemical; settings: pH 7.4, 48 h
[11] = Oral bioavailability in Han Wistar rat at 1 mg/kg; assay type: ADME, organism-based; settings: in vivo
[12] = Unbound fraction in human plasma by equilibrium dialysis; assay type: ADME, cell-free
[13] = Stability in pH 5 buffer solution at 37 degC measured over 2 days; assay type: physicochemical; settings: pH 5, 48 h
[14] = Permeability from basolateral to apical side in human Caco2 cells; assay type: ADME, cell-based; settings: for permeability: Caco-2
[15] = Volume of distribution at steady state in Han Wistar rat at 0.5 mg/kg, iv or 1 mg/kg, po; assay type: ADME, organism-based; settings: in vivo, read-out: Vdss
[16] = Distribution coefficient between 1-octanol and aqueous phosphate buffer, logD of the compound in pH 7.4 buffer; assay type: physicochemical; settings: 1-octanol/aqueous phosphate buffer
[17] = target: T1, Nuclear receptor ROR-alpha; assay: Inverse agonist activity at His6-tcs-human RORalpha LBD assessed as inhibition of biotinylated PGC1alpha (130 to 154 residues) peptide recruitment incubated for 1 hr by HTRF-FRET assay
[18] = target: T3, Nuclear receptor ROR-gamma; assay: Inverse agonist activity at RORgammat in human TH17 cells assessed as inhibition of IL17 release incubated for 4 days by HTRF assay; assay type: cell-based
[19] = Intrinsic clearance in rat hepatocytes assessed per million cells; assay type: ADME, cell-based, Hepatocyte; settings: read-out: CLH
[20] = target: hERG (KCNH2) (Homo sapiens, UniProt Q12809); assay: Inhibition of human ERG at 11 uM
[21] = Permeability from apical to basolateral side in human Caco2 cells; assay type: ADME, cell-based; settings: for permeability: Caco-2
[22] = Intrinsic clearance in human hepatocytes assessed per million cells; assay type: ADME, cell-based, Hepatocyte; settings: read-out: CLH
[23] = Clearance in Han Wistar rat at 0.5 mg/kg, iv or 1 mg/kg, po; assay type: ADME, organism-based; settings: in vivo
[24] = test system: Homo sapiens; assay: Reduction in psoriasis-severity index in psoriasis patient dosed orally during phase 2a study; assay type: functional; parameters: scale not given: the % may be the effect or the level left
[25] = Cytotoxicity in human Th17 cells assessed as effect on cell viability by cell-titer-Glo luminescent cell viability assay relative to control; assay type: cell-based; settings: read-out: Efficacy
[26] = Selectivity index, ratio of cytotoxicity in human Th17 cells to IC50 for inverse agonist activity at RORgammat in human TH17 cells assessed as inhibition of IL17 release; assay type: toxicity, cell-based

Sequence of hERG (KCNH2) (Q12809 whole entry): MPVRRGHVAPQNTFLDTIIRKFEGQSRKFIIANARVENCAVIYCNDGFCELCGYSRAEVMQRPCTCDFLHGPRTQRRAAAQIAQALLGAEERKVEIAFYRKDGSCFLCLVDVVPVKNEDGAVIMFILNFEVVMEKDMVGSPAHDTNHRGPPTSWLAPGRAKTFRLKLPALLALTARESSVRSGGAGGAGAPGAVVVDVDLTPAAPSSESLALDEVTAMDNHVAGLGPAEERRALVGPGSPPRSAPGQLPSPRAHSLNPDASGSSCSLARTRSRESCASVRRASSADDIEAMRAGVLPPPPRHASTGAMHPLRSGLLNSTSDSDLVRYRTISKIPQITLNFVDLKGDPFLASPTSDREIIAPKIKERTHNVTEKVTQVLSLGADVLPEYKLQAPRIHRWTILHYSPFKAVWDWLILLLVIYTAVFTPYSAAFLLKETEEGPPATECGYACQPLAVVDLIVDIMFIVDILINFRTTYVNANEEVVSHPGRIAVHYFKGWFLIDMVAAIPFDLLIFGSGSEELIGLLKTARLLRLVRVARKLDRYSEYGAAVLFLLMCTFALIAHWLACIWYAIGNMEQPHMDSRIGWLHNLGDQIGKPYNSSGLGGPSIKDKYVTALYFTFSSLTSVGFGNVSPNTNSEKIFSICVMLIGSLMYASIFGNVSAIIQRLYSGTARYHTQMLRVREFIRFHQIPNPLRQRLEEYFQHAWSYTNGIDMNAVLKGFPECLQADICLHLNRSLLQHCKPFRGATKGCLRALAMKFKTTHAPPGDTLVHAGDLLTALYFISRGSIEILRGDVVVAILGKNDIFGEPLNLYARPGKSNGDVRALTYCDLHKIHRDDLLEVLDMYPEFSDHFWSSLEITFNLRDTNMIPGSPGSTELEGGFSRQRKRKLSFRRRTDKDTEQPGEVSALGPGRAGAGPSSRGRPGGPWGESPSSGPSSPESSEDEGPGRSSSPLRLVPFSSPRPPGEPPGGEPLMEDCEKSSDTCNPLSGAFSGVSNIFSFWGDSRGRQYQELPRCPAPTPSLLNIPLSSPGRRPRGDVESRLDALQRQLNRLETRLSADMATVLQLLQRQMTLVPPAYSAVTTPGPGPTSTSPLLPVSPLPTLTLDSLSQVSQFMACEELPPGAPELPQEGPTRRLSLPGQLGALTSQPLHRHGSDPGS

half-life [1] [h]	pEC50 [4]	pIC50 [5]	pIC50 [6]	Fa [7] [%]	solubility [8] [µM]	pIC50 [9]	bioavailability [11] [%]	fraction unbound [12]	Vd [15] [L/kg]	logD [16]	pIC50 [17]	pIC50 [18]	hepatocyte CLint [19] [µL/min/1e6 cells]	hepatocyte CLint [22] [µL/min/1e6 cells]	clearance [23] [mL/min/kg]	Ratio [3]	permeability [14]	permeability [21]	SMILES	inhibition at 11 µM [20] [%]	also measured
4.3	< 4.48	< 5.00	8.52	< 1.2	0.3 (≈ 0.19 µg/mL)	7.47	< 1	0.001	2.4	4.7	5.03	7.96	8.9 to 12	8.5	12	–	–	–	CCS(=O)(=O)c1ccc([C@@H](NC(C)=O)C(=O)Nc2cc(-c3cccnc3OCc3ccc(OC(F)(F)F)cc3)cs2)cc1	8	Stability [2]: Stable; efflux ratio [3]: > 1500; Stability [10]: Stable; Stability [13]: Stable; Papp B→A ([14]; Caco-2, read-out: permeability): 42 ×10⁻⁶ cm/s; Papp A→B ([21]; Caco-2, read-out: permeability): < 0.001 ×10⁻⁶ cm/s
–	–	–	6.57	–	–	5.45	–	–	–	4.7	–	7.64	18	–	–	–	–	–	CCS(=O)(=O)c1ccc([C@H](NC(C)=O)C(=O)Nc2cc(-c3cccnc3OCc3ccc(OC(F)(F)F)cc3)cs2)cc1	–	Stability [2]: Stable; Stability [10]: Stable; Stability [13]: Stable
–	–	–	–	–	–	–	–	–	–	–	–	–	–	–	–	–	–	–	CCS(=O)(=O)c1ccc(CNC(=O)c2cnc3c(c2)CN(C[C@H]2CC[C@H](C(F)(F)F)CC2)[C@H]3C(C)C)nc1	–	Activity [24]: 24%
–	< 4.48	< 5.00	8.15	–	3.6 (≈ 2.04 µg/mL)	7.14	–	0.002	–	3.7	6.22	7.31	< 1	–	–	–	–	–	CCS(=O)(=O)c1ccc(C(NC(C)=O)C(=O)Nc2cc(-c3cc(C#N)cnc3OCC(F)(F)F)cs2)cc1 (centres undefined)	3	–
1.4	< 4.48	< 5.00	8.15	30	0.7 (≈ 0.404 µg/mL)	7.52	10	< 0.0002	3.8	–	< 4.48	7.60	40	8.6	46.5	Impermeable	Impermeable	Impermeable	CCS(=O)(=O)c1ccc(CC(=O)Nc2cc(-c3cccnc3OCc3ccc(OC(F)(F)F)cc3)cs2)cc1	0	Emax [25]: 40%; selectivity ratio [26]: 100
4.4	< 4.48	–	8.70	36	0.2 (≈ 0.102 µg/mL)	7.52	36	0.0006	0.23	–	5.21	7.19	7.5	5.9	0.8	Impermeable	Impermeable	Impermeable	CCS(=O)(=O)c1ccc(CC(=O)Nc2cc(-c3cc(C#N)cnc3OCC(F)(F)F)cs2)cc1	47	–
1.6	< 4.48	–	7.48	67	2.5 (≈ 1.41 µg/mL)	–	45	< 0.001	2.8	–	< 4.48	6.84	20	11.9	24	Impermeable	Impermeable	Impermeable	CCS(=O)(=O)c1ccc(CC(=O)Nc2cc(-c3cccnc3Oc3ccc(OC(F)(F)F)cc3)cs2)cc1	14	–
